This is an account of results in US10513521B2, “Compositions and methods for inhibiting BMP” (The Brigham and Women's Hospital, Inc., priority 2014, dated 2019).

Structures are written as SMILES. Counter-ions that a name gives are not always drawn. Some results are limits rather than exact numbers.

One assay concerns the target ALK1 (Homo sapiens, UniProt P37023). The assay is described as follows: TR-FRET enzymatic ALK kinase assay, ALK1. For orientation: Time-resolved FRET reads energy transfer from a long-lived donor to a nearby acceptor.
The next assay has as its target T1, ALK2 (Homo sapiens, UniProt Q04771).
T1 sequence (Q04771 21-509): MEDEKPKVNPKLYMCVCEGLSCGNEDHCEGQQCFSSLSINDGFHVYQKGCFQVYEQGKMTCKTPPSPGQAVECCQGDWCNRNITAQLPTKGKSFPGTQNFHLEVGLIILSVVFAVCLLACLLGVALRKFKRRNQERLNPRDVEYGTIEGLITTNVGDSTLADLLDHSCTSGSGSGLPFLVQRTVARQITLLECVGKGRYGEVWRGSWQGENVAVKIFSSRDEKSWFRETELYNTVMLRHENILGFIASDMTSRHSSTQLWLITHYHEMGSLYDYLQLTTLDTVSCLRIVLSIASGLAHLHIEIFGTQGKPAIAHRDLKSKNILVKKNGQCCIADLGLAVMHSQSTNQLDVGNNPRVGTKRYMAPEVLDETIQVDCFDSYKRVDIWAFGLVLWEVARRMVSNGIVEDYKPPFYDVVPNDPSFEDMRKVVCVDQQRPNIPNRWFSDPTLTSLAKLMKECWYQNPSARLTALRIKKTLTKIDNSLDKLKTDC
Kind of assay: TR-FRET enzymatic ALK kinase assay, ALK2.

The target of a further assay is ALK3 (Homo sapiens, UniProt P36894). Kind of assay: TR-FRET enzymatic ALK kinase assay, ALK3.
Sequence of ALK3 (P36894 24-532): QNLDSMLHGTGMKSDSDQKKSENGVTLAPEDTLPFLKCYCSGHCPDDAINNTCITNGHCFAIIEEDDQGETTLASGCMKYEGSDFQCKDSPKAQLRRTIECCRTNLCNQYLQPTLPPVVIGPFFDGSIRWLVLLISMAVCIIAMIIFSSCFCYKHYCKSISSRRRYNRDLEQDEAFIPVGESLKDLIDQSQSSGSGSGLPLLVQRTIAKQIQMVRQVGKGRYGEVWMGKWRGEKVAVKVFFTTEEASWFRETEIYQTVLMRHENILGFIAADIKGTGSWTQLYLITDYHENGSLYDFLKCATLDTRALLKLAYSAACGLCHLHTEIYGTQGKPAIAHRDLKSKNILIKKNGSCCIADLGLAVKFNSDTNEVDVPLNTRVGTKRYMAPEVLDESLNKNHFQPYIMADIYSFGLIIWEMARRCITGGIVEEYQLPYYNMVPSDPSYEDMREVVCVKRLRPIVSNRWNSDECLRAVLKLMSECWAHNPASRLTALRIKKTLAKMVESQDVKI
For another assay, the target named is T2, ALK4 (Homo sapiens, UniProt P36896).
T2 sequence (P36896 24-505): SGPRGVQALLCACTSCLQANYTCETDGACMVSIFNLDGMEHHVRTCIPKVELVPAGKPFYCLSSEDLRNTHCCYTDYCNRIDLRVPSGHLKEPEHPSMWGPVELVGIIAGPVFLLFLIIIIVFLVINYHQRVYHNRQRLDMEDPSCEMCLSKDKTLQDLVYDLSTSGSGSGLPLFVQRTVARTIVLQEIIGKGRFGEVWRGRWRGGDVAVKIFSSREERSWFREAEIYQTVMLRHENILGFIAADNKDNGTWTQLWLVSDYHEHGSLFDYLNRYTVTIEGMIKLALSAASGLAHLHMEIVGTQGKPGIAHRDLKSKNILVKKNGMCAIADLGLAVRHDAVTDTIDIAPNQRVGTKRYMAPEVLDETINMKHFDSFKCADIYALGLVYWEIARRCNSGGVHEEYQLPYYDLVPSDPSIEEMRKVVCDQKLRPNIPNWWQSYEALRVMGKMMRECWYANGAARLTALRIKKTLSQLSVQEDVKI
Kind of assay: TR-FRET enzymatic ALK kinase assay, ALK4.

In the next assay the target is T3, ALK5 (Homo sapiens, UniProt P36897).
T3 sequence (P36897 34-503): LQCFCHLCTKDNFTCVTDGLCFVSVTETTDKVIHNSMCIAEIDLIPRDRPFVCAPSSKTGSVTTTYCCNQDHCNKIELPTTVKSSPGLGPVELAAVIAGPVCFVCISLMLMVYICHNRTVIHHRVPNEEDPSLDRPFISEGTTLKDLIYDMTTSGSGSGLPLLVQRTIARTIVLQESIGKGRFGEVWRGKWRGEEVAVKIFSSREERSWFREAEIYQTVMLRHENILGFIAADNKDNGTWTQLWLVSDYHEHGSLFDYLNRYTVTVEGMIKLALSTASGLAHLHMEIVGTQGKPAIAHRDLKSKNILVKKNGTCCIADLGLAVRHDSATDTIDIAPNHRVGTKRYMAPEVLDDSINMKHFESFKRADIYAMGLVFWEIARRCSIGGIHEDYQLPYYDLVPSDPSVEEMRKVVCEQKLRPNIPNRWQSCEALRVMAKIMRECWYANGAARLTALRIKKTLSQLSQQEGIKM
Kind of assay: TR-FRET enzymatic ALK kinase assay, ALK5.

A further assay concerns the target ALK6 (Homo sapiens, UniProt O00238). Kind of assay: TR-FRET enzymatic ALK kinase assay, ALK6.

Sequence of ALK6 (O00238 14-502): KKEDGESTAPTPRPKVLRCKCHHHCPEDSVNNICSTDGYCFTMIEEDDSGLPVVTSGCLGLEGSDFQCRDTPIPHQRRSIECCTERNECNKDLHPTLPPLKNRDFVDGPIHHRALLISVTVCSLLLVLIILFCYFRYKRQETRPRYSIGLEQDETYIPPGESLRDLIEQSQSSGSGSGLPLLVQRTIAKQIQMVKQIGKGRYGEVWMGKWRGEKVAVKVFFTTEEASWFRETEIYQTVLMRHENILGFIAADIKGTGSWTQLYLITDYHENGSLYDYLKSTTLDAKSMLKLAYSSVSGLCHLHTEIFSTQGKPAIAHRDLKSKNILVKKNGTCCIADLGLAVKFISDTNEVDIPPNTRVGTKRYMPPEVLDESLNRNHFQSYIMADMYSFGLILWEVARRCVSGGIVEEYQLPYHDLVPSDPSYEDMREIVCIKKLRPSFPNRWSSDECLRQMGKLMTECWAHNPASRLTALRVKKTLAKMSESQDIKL
Sequence of ALK1 (P37023 22-503): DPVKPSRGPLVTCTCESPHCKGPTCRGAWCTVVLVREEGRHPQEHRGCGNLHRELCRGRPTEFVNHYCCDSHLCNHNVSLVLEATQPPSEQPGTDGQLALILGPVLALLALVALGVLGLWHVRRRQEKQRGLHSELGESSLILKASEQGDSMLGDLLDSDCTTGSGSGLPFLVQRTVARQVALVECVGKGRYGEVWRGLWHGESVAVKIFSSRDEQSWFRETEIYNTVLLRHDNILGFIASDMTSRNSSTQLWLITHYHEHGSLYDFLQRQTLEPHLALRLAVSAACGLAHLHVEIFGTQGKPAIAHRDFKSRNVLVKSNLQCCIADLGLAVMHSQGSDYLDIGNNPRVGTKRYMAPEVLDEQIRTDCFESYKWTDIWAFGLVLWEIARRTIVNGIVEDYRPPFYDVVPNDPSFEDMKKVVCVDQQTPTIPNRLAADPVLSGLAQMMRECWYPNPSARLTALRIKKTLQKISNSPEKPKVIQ
Procedure for ALK1: (§1) Briefly, the ALKs enzymatic assay was initiated by dispense 2.5 μl enzyme in 1× kinase reaction buffer. The assay plate was then added with compounds followed by incubation at room temperature for 10 minutes. Then 2.5 μl/well substrate was added.
Procedure for ALK2: as §1
Procedure for ALK3: as §1
Procedure for ALK4: as §1
Procedure for ALK5: Six ALK kinase enzyme assays were developed for determination of compound activities on ALK1, ALK2, ALK3, ALK4, ALK5 and ALK6.
as §1
Procedure for ALK6: as §1

In general, IC50 refers to the point on the concentration scale where inhibition reaches its midpoint. Turning to `C[C@@H]1CNC[C@H](C)N1c1ccc(-c2cnc3c(-c4cccc5ccccc45)cnn3c2)cc1` [Compound 31, 6-(4-((2R,6S)-2,6-dimethylpiperazin-1-yl)phenyl)-3-(naphthalen-1-yl)pyrazolo[1,5-a]pyrimidine], the IC50 against ALK1 came to 51 nM; on ALK2 it was 17 nM; against ALK3 it was 0.271 µM; against ALK4, 6.6 µM; at ALK5 it was 59.6 µM; against ALK6, 1.08 µM.

For `CC(O)c1cccc2c(-c3cnn4cc(-c5ccc(N6[C@H](C)CNC[C@@H]6C)cc5)cnc34)cccc12` (stereo partly drawn) [Compound 33, 1-(5-(6-(4-((2R,6S)-2,6-dimethylpiperazin-1-yl)phenyl)pyrazolo[1,5-a]pyrimidin-3-yl)naphthalen-1-yl)ethanol], the concentration for half-maximal inhibition (IC50) against ALK1 turned out to be 1520 nM; against ALK2, 367 nM; against ALK3 it was 7.83 µM; at ALK4, 16.3 µM; against ALK5 it was 40.4 µM; against ALK6, 16.2 µM.

Regarding `COc1ccc2ccccc2c1-c1cnn2cc(-c3ccc(N4[C@H](C)CNC[C@@H]4C)cc3)cnc12` [Compound 34, 6-(4-((2R,6S)-2,6-dimethylpiperazin-1-yl)phenyl)-3-(2-methoxynaphthalen-1-yl)pyrazolo[1,5-a]pyrimidine], the 50% inhibitory concentration (IC50) stood at 1310 nM on ALK1; 249 nM on ALK2; 4.86 µM against ALK3; 12.7 µM on ALK4; 18.5 µM on ALK5; 17.4 µM on ALK6.

For `C[C@@H]1CNC[C@H](C)N1c1ccc(-c2cnc3c(-c4cccc5c(S(=O)(=O)N(C)C)cccc45)cnn3c2)cc1` [Compound 40, 5-(6-(4-((2R,6S)-2,6-dimethylpiperazin-1-yl)phenyl)pyrazolo[1,5-a]pyrimidin-3-yl)-N,N-dimethylnaphthalene-1-sulfonamide], the half-inhibitory concentration (IC50) against ALK1 is > 10000 nM; at ALK2, 3200 nM; at ALK3, > 10 µM; on ALK4 it was > 10 µM; against ALK5, > 10 µM; on ALK6, > 10 µM.

On to `CC1CCN(c2ccc(-c3cnc4c(-c5ccc(S(N)(=O)=O)c6ccccc56)cnn4c3)cn2)CC1` [Compound 47, 4-(6-(6-(4-methylpiperidin-1-yl)pyridin-3-yl)pyrazolo[1,5-a]pyrimidin-3-yl)naphthalene-1-sulfonamide], for which the IC50 on ALK1 was 5700 nM; on ALK2, 2900 nM; against ALK3 it was > 10 µM; at ALK4, > 10 µM; against ALK5, > 10 µM; against ALK6 it was > 10 µM.

`C[C@@H]1CNC[C@H](C)N1c1ccc(-c2cnc3c(-c4ccc(F)c(-c5nnn[nH]5)c4)cnn3c2)cc1` [Compound 72, 6-(4-((2R,6S)-2,6-dimethylpiperazin-1-yl)phenyl)-3-(4-fluoro-3-(1H-tetrazol-5-yl)phenyl)pyrazolo[1,5-a]pyrimidine]: the IC50 is 120 nM at ALK1; 16 nM against ALK2; 0.22 µM against ALK3; > 10 µM at ALK4; > 10 µM against ALK5; 0.33 µM on ALK6.

As for `CS(=O)(=O)c1cccc(-c2cnn3cc(-c4ccc(CC5CCNCC5)cc4)cnc23)c1` [Compound 126, 3-(3-(methylsulfonyl)phenyl)-6-(4-(piperidin-4-ylmethyl)phenyl)pyrazolo[1,5-a]pyrimidine. TFA], the half-inhibitory concentration (IC50) against ALK1 is 900 nM; at ALK2, 280 nM; at ALK3, > 10 µM; on ALK4, > 10 µM; against ALK5, > 10 µM; at ALK6, > 10 µM.

Regarding `CC(O)c1cccc(-c2cnn3cc(-c4ccc(C(F)(F)CN5CCCCC5)cc4)cnc23)c1` (stereo not drawn) [Compound 127, 1-(3-(6-(4-(1,1-difluoro-2-(piperidin-1-yl)ethyl)phenyl)pyrazolo[1,5-a]pyrimidin-3-yl)phenyl)ethanol], the IC50 against ALK1 is 4800 nM; against ALK2 it was 1700 nM; on ALK3, > 10 µM; on ALK4, > 10 µM; against ALK5, > 10 µM; at ALK6, > 10 µM.

`CS(=O)(=O)c1cccc(-c2cnn3cc(-c4ccc(CCN5CCCC5)cc4)cnc23)c1` [Compound 128, 3-(3-(methylsulfonyl)phenyl)-6-(4-(2-(pyrrolidin-1-yl)ethyl)phenyl)pyrazolo[1,5-a]pyrimidine]: the IC50 against ALK1 is 390 nM; on ALK2 it was 80 nM; against ALK3 it was 6.3 µM; against ALK4, > 10 µM; at ALK5, > 10 µM; against ALK6 it was > 10 µM.

Take `CC(O)c1cccc(-c2cnn3cc(-c4ccc(C5CCNC5)cc4)cnc23)c1` (stereo not drawn) [Compound 130, 1-(3-(6-(4-(pyrrolidin-3-yl)phenyl)pyrazolo[1,5-a]pyrimidin-3-yl)phenyl)ethanol]: the half-maximal inhibitory concentration (IC50) at ALK1 is 610 nM; against ALK2, 130 nM; on ALK3, > 10 µM; at ALK4, > 10 µM; against ALK5 it was > 10 µM; against ALK6 it was > 10 µM.

As to `CS(=O)(=O)c1cccc(-c2cnn3cc(-c4ccc(CCN5CCOCC5)cc4)cnc23)c1` [Compound 131, 4-(4-(3-(3-(methylsulfonyl)phenyl)pyrazolo[1,5-a]pyrimidin-6-yl)phenethyl)morpholine], the 50% inhibitory concentration (IC50) is 760 nM at ALK1; 150 nM at ALK2; 2.3 µM on ALK3; > 10 µM at ALK4; > 10 µM against ALK5; 5.1 µM against ALK6.

In the case of `CS(=O)(=O)c1cccc(-c2cnn3cc(-c4ccc(CCN5CCC(O)C5)cc4)cnc23)c1` (stereo not drawn) [Compound 132, 1-(4-(3-(3-(methylsulfonyl)phenyl)pyrazolo[1,5-a]pyrimidin-6-yl)phenethyl)pyrrolidin-3-ol], the IC50 at ALK1 was 630 nM; at ALK2, 130 nM; against ALK3, 6.4 µM; at ALK4, > 10 µM; on ALK5, > 10 µM; against ALK6, > 10 µM.

For `CS(=O)(=O)c1cccc(-c2cnn3cc(-c4ccc(CCn5ccnc5)cc4)cnc23)c1` [Compound 133, 6-(4-(2-(1H-imidazol-1-yl)ethyl)phenyl)-3-(3-(methylsulfonyl)phenyl)pyrazolo[1,5-a]pyrimidine], the IC50 on ALK1 is 670 nM; against ALK2, 230 nM; against ALK3, > 10 µM; against ALK4, > 10 µM; against ALK5 it was > 10 µM; at ALK6 it was > 10 µM.

Take `CC(O)c1cccc(-c2cnn3cc(-c4ccc(C5CCCCN5)cc4)cnc23)c1` (stereo not drawn) [Compound 135, 1-(3-(6-(4-(piperidin-2-yl)phenyl)pyrazolo[1,5-a]pyrimidin-3-yl)phenyl)ethanol]: the IC50 was 670 nM on ALK1; 150 nM on ALK2; > 10 µM against ALK3; > 10 µM on ALK4; > 10 µM on ALK5; > 10 µM against ALK6.

As to `CC(O)c1cccc(-c2cnn3cc(-c4ccc(C5CCCNC5)cc4)cnc23)c1` (stereo not drawn) [Compound 138, 1-(3-(6-(4-(piperidin-3-yl)phenyl)pyrazolo[1,5-a]pyrimidin-3-yl)phenyl)ethanol], the half-maximal inhibitory concentration (IC50) on ALK1 was 580 nM; against ALK2, 110 nM; at ALK3, 4.9 µM; on ALK4, > 10 µM; against ALK5, > 10 µM; at ALK6 it was > 10 µM.
